These results are taken from patent US5643884A, “Lupane triterpenoid derivatives” (Glycomed Incorporated, priority 1993, dated 1997).

Converted amounts (≈) assume the structure as drawn.

For assay [1], the system named is P-388 lymphocytic leukemia cells. The settings on record: Choi et al, Planta Medica 1988; cited from earlier work.
In assay [2] the test system is arachidonic acid (AA) induced ear swelling. Description: arachidonic acid (AA), murine skin inflammation model (ear swelling). As to conditions: topical, 1 mg, 90 minutes. The class given is in vivo. As to the method:
Arachidonic acid is known to induce an inflammatory response and the compounds were tested for their capacity to inhibit the response.
Briefly, the compounds at an appropriate concentration are dissolved in a suitable solvent, and applied to a rodent ear immediately following application of arachidonic acid (AA). A control of AA alone is run. About 90 minutes later a 6 mm disk of each ear is removed and weighed.
For comparison, betulinic acid was also tested. All compounds were dissolved at 50 mg/mL in CHCl3 :CH3 OH (1:1) and […] of each compound was applied two times to the ear, at about a 2 minute interval or the period of time it took for the solvent to evaporate from the ear, immediately following arachidonic acid (AA). A control of AA alone was run. Ninety minutes later a 6 mm disk of each ear was removed and weighed.

Assay [3] deals with 5-lipoxygenase. The settings on record: Sotomatsu et al. 1959; Inoue et al. 1986; cited from earlier work.
For assay [4], the system named is ornithine decarboxylase. As to conditions: Yasukawa et al. 1991; cited from earlier work.
The test system of assay [5] is P-selectin. As to the kind of experiment: inhibition of P-selectin binding to HL-60 cells. The settings on record: read-out: IC50, P-selectin binding to HL-60 cells; P-selectin 200 ng/ml; 4° C., 1 hour. The class given is cell-based, human HL-60 cells. Here is the method: Certain of the invention compounds were tested for their capacity to inhibit P-selectin binding to HL-60 cells, and to a chemical known to bind to P-selectin, 2,3 sLex. The following materials and procedures were used.
P-Selectin Detection Solutions. Goat F(ab')2 anti-human IgG (Fc spec.)-biotin and streptavidin-AP were diluted 1:1000 in 1% BSA-TBS with 1 mM Ca^++. An Elisa assay was utilized to measure P-selectin binding to 2,3 sLex, and P-selectin was added at 300 ng/ml. An Elisa assay was also used to assay for the capacity of the invention compounds to inhibit HL-60 cell binding to P-selectin. HL-60 cells were used, and P-selectin was added at 200 ng/ml.
2,3 sLex was coated at 30 pmoles/well to Probind microtiter plates for Elisa. The glycolipid was added at 50 μl/well in 50% MeOH and allowed to evaporate overnight. Elisa plates and HL-60 assay plates were blocked with 5% BSA-TBS Ca^++ for more than an hour at room temperature. The plates were washed with TBS without Ca^++.
HL-60 cells were harvested by centrifugation, washed with TBS no Ca^++, counted, and the density adjusted to 2×10^6 /ml in 1% BSA-TBS Ca^++.
Briefly, the assays were conducted as follows. […] DMF solutions were added directly to 1% BSA/TBS-Ca for dilutions through 0.5 mM. Lower concentrations were made in serial two-fold dilutions in BSA-TBS. […]

Assay [6] deals with E-selectin. Description: cancer cell adhesion to E-selectin (E-selectin chimera binding to fixed LS174T colon carcinoma cells). Type of assay: cell-based. As to conditions: lowest concentration from serial two-fold dilutions inhibiting by 50% or more, FIGS. 3 and 4.
Method: The mixture is rotated briskly on a rotary platform at room temperature for about 30-60 minutes. Particulate matter is removed by centrifugation, and the soluble fraction is transferred onto 96-well microtiter plates containing glutaraldehyde fixed LS174T colon carcinoma cells. This cell line is known to adhere to E-selectin. After 60 minutes at 37° C., plates are washed and E-selectin chimera bound to cells is quantified by addition of pNPP substrate in 1M diethanolamine buffer containing 0.1 mg/ml MgCl2 at pH 9.8. Plates are developed in the dark and read at 405 nm. The IC50 values are calculated and are the lowest concentrations from serial two-fold dilutions (quadruplicate wells at each concentration) which inhibits cell binding by 50% or more relative to the control.
Experiments were conducted to determine the capacity of the invention compounds to interfere with the binding of cancer cells to E-selectin. The compounds are dissolved in dimethylformamide (DMF) prior to being assayed. […] After 60 minutes at 37° C., plates are washed and E-selectin chimera bound to cells is quantified by addition of pNPP substrate in 1M diethanolamine buffer containing 0.1 mg/ml MgCl2 at pH 9.8. Plates are developed in the dark and read at 405 nm. […]

As to `C=C(C)[C@@H]1CC[C@]2(C(=O)O)CC[C@]3(C)[C@H](CC[C@@H]4[C@@]5(C)CC[C@H](OC(C)=O)C(C)(C)[C@@H]5CC[C@]43C)[C@@H]12` [betulinic acid 3-monoacetate], in assay [1], the “ED50 against P-388 lymphocytic leukemia cells” value is 10.5 µg/mL (≈ 21.1 µM).
In the case of `C=C(C)[C@@H]1CC[C@]2(C(=O)OC)CC[C@]3(C)[C@H](CC[C@@H]4[C@@]5(C)CC[C@H](O)C(C)(C)[C@@H]5CC[C@]43C)[C@@H]12` [betulinic acid methyl ester], in assay [1], the “ED50 against P-388 lymphocytic leukemia cells” value was 6.8 µg/mL (≈ 14.4 µM).
Take `C=C(C)[C@@H]1CC[C@]2(C(=O)O)CC[C@]3(C)[C@H](CC[C@@H]4[C@@]5(C)CC[C@H](O)C(C)(C)[C@@H]5CC[C@]43C)[C@@H]12` [betulinic acid]: the “% Inhibition of Swelling” value in assay [2] (first printed value of three separate experiments) is reported as around 0%; in assay [2] (first printed value of three separate experiments, listed as Betulinic acid), 0.0%; in assay [2] (second printed value of three separate experiments) it was around 12.2%; in assay [2] (third printed value of three separate experiments) it was around 25.9%. Also, in assay [3], the “inhibition of enzymes involved in leukotriene biosynthesis, including 5-lipoxygenase” value was “capacity to inhibit enzymes involved in leukotriene biosynthesis, including 5-lipoxygenase”. Also, the “inhibition of ornithine decarboxylase” value in assay [4] is listed as “known inhibitor of ornithine decarboxylase”. Moreover, the IC50 in assay [5] was around 750 µM; in assay [6] it was 60 µM.
